These results are taken from article PMC3617406 (Molecular pharmaceutics, 2013).

Structures can show the parent of a compound that is named as a salt. Where two headings read alike, the source gives them in different places.

Type in all cases: cell-based
Assay [1] addresses T1, human NTCP (Homo sapiens, UniProt Q14973).
T1 sequence (Q14973 1-349): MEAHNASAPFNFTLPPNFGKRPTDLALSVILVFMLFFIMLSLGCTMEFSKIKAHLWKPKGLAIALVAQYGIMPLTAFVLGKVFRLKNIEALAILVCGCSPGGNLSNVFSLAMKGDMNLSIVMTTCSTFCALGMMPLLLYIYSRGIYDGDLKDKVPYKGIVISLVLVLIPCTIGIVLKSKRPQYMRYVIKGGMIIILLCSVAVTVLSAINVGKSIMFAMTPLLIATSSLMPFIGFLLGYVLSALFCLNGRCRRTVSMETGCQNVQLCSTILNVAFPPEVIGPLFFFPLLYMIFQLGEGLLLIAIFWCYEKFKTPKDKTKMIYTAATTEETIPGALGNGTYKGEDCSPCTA
The following applies: for NTCP inhibitor or non-inhibitor: inhibitor = Ki less than 300 μM; for potency estimated from few doses: read-out: Estimated Ki for NTCP.

The target of a further assay is T2, human ASBT (Homo sapiens, UniProt Q12908).
T2 sequence (Q12908 1-348): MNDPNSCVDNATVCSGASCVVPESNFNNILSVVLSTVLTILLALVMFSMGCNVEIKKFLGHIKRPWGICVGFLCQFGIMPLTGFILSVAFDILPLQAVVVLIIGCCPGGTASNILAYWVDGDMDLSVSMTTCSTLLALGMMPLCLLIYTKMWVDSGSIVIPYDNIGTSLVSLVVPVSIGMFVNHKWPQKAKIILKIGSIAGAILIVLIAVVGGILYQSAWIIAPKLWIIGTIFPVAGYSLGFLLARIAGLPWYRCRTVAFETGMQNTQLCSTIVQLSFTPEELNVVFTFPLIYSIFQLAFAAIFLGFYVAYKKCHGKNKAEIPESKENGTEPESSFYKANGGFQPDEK
The following applies: for ASBT inhibitor or non-inhibitor: inhibitor = Ki below 300 μM; for potency estimated from few doses: read-out: Estimated Ki for ASBT; for taurocholate uptake into ASBT-MDCK cells, percent of control: single drug concentration, same as in NTCP screening (typically 100 μM); for fold more potent ASBT inhibition than NTCP inhibition: Ki values of Table 4 and 5.

The target of assay [2] is T1, human NTCP.

By Ki is commonly meant the equilibrium dissociation constant of an inhibitor or competing ligand from its target. High values mean lower affinity, low ones higher affinity. As to `CC(=O)N1CCN(c2ccc(OCC3COC(Cn4ccnc4)(c4ccc(Cl)cc4Cl)O3)cc2)CC1` (stereo not drawn) [Ketoconazole], at human NTCP [1], the “NTCP inhibitor or non-inhibitor” value is recorded as “NTCP inhibitors” and the potency estimated from few doses was 98.8 ± 12 µM. Further, at human ASBT, the “ASBT inhibitor or non-inhibitor” value is “ASBT inhibitors”; the potency estimated from few doses was 61.9 ± 27 µM; the “taurocholate uptake into ASBT-MDCK cells, percent of control” value is listed as “below 50%”. In addition, the inhibition constant (Ki) on human NTCP [2] worked out at 202 µM.
With `Cc1ncc([N+](=O)[O-])n1CCO` [Metronidazole], the potency estimated from few doses is 369 ± 83 µM at human NTCP [1] and 223 ± 90 µM on human ASBT. Besides, at human ASBT, the “ASBT inhibitor or non-inhibitor” value is given as “ASBT inhibitors”.
On to `Nc1ccc(S(N)(=O)=O)cc1` [Sulfanilamide], for which, at human NTCP [1], the “NTCP inhibitor or non-inhibitor” value is on record as “inhibited NTCP” and the potency estimated from few doses was 250 ± 50 µM. For the same molecule, the potency estimated from few doses on human ASBT was 194 ± 24 µM.
Consider `N[C@@H](C(=O)N[C@@H]1C(=O)N2C(C(=O)O)=C(Cl)CS[C@H]12)c1ccccc1` [Cefaclor], for which the potency estimated from few doses on human NTCP [1] is greater than 100 µM; at human ASBT, 1890 ± 257 µM.
Regarding `Clc1ccc(COC(Cn2ccnc2)c2ccc(Cl)cc2Cl)c(Cl)c1` (stereo not drawn) [Miconazole], the potency estimated from few doses on human NTCP [1] was 601 ± 300 µM; on human ASBT it was 61.3 ± 16 µM. The “ASBT inhibitor or non-inhibitor” value at human ASBT is recorded as “ASBT inhibitors”.
Regarding `CN1CCC[C@@H]1Cc1c[nH]c2ccc(CCS(=O)(=O)c3ccccc3)cc12` [Eletriptan], the potency estimated from few doses is greater than 100 µM at human NTCP [1] and 137 ± 48 µM at human ASBT. In addition, the “fold more potent ASBT inhibition than NTCP inhibition” value on human ASBT is recorded as no less than 10 fold.
Regarding `Cc1ccc(NC(=O)c2ccc(CN3CCN(C)CC3)cc2)cc1Nc1nccc(-c2cccnc2)n1` [Imatinib], the potency estimated from few doses on human NTCP [1] was 673 ± 130 µM; at human ASBT it was 177 ± 32 µM.
For `COc1ccc2[nH]c([S+]([O-])Cc3ncc(C)c(OC)c3C)nc2c1` (stereo not drawn) [Omeprazole], at human NTCP [1], the potency estimated from few doses was greater than 100 µM. For the same molecule, on human ASBT, the “fold more potent ASBT inhibition than NTCP inhibition” value is given as no less than 10 fold and the potency estimated from few doses was 103 ± 23 µM.
Regarding `CC(C)[C@H]1CC[C@H](C(=O)N[C@H](Cc2ccccc2)C(=O)O)CC1` [Nateglinide], the “NTCP inhibitor or non-inhibitor” value on human NTCP [1] is “inhibited NTCP”. Moreover, the potency estimated from few doses was 111 ± 7 µM at human NTCP [1] and 77 ± 16 µM at human ASBT. The same molecule showed an inhibition constant (Ki) on human NTCP [2] of 200 ± 32 µM.
On to `CCC(C)n1ncn(-c2ccc(N3CCN(c4ccc(OCC5COC(Cn6cncn6)(c6ccc(Cl)cc6Cl)O5)cc4)CC3)cc2)c1=O` (stereo not drawn) [Itraconazole], for which, at human NTCP [1], the “NTCP inhibitor or non-inhibitor” value is reported as “NTCP inhibitors” and the potency estimated from few doses was 77.1 ± 38 µM. Besides, on human ASBT, the “ASBT inhibitor or non-inhibitor” value is listed as “ASBT inhibitors” and the potency estimated from few doses was 57 ± 25 µM.
With `CC(C)C[C@H](NC(=O)[C@H](Cc1ccccc1)NC(=O)c1cnccn1)B(O)O` [Bortezomib], the potency estimated from few doses on human NTCP [1] is greater than 100 µM; on human ASBT it was 811 ± 243 µM.
Regarding `CCCN(CCC)CCc1cccc2c1CC(=O)N2` [Ropinirole], the potency estimated from few doses on human NTCP [1] was greater than 100 µM. At human ASBT, the potency estimated from few doses is 30.3 ± 11 µM and the “taurocholate uptake into ASBT-MDCK cells, percent of control” value is given as “below 50%”.
As for `CCOC(=O)[C@H](CCc1ccccc1)N[C@@H](C)C(=O)N1CCC[C@H]1C(=O)O` [Enalapril], the potency estimated from few doses on human NTCP [1] is greater than 100 µM; on human ASBT it was 162 ± 82 µM. For the same molecule, on human ASBT, the “fold more potent ASBT inhibition than NTCP inhibition” value was no less than 10 fold.
As for `CCC1(C)CC(=O)NC1=O` (stereo not drawn) [Ethosuximide], the potency estimated from few doses on human NTCP [1] was 513 ± 169 µM; at human ASBT it was 313 ± 53 µM.
The matching figures for `O=C1C(CC[S+]([O-])c2ccccc2)C(=O)N(c2ccccc2)N1c1ccccc1` (stereo not drawn) [Sulfinpyrazone]: 1660 ± 2870 µM and 529 ± 600 µM.
The matching figures for `CCOc1ccc2ccccc2c1C(=O)N[C@@H]1C(=O)N2[C@@H]1SC(C)(C)[C@@H]2C(=O)O` [Nafcillin]: 2010 ± 5840 µM and greater than 100 µM.
The matching figures for `NS(=O)(=O)c1cc(C(=O)O)c(NCc2ccco2)cc1Cl` [Furosemide]: 304 ± 132 µM and greater than 100 µM.
Regarding `C[C@H]1O[C@H](O[C@H]2[C@H](O)[C@@H](O)[C@@H](O[C@H]3[C@H](O)[C@@H](O)C(O)O[C@@H]3CO)O[C@@H]2CO)[C@H](O)[C@@H](O)[C@@H]1N[C@H]1C=C(CO)[C@@H](O)[C@H](O)[C@H]1O` (stereo partly drawn) [Acarbose], the potency estimated from few doses at human NTCP [1] was greater than 100 µM; at human ASBT, 318 ± 169 µM.
In the case of `Clc1ccc(COC(Cn2ccnc2)c2ccc(Cl)cc2Cl)cc1` (stereo not drawn) [Econazole], the potency estimated from few doses at human NTCP [1] is 416 ± 624 µM. At human ASBT, the “fold more potent ASBT inhibition than NTCP inhibition” value was no less than 10 fold; the “ASBT inhibitor or non-inhibitor” value was “ASBT inhibitors”; the potency estimated from few doses was 18.5 ± 3.9 µM; the “taurocholate uptake into ASBT-MDCK cells, percent of control” value was “below 50%”.
For `C[C@H]1[C@H](NC(=O)/C(=N\OC(C)(C)C(=O)O)c2csc(N)n2)C(=O)N1S(=O)(=O)O` [Aztreonam], the potency estimated from few doses on human NTCP [1] is greater than 100 µM; at human ASBT it was 1420 µM.
The like results for `COc1ccc(CC(C)NCC(O)c2ccc(O)c(NC=O)c2)cc1` (stereo not drawn) [Formoterol] were, in that order, greater than 100 µM and 175 ± 96 µM.
Consider `COC(=O)[C@H]1[C@H]2C[C@@H]3c4[nH]c5cc(OC)ccc5c4CCN3C[C@H]2C[C@@H](OC(=O)c2cc(OC)c(OC)c(OC)c2)[C@@H]1OC` [Reserpine], for which the “NTCP inhibitor or non-inhibitor” value is listed as “inhibited human NTCP” on human NTCP [1] and “inhibited NTCP” at human NTCP [1] (listed as reserpine). The values for the potency estimated from few doses on human NTCP [1] and on human ASBT were 89.1 ± 65 µM and 21.6 ± 2.9 µM, respectively.
As for `Nc1nc(NC2CC2)c2ncn([C@H]3C=C[C@@H](CO)C3)c2n1` [Abacavir], the potency estimated from few doses on human NTCP [1] was 1290 µM; at human ASBT, 1460 µM.
The like results for `CC(=O)CC(c1ccccc1)c1c(O)c2ccccc2oc1=O` (stereo not drawn) [Warfarin] were, in that order, greater than 100 µM and 97.4 ± 26 µM.
Consider `CCCCc1ncc(/C=C(\Cc2cccs2)C(=O)O)n1Cc1ccc(C(=O)O)cc1` [Eprosartan], for which, at human NTCP [1], the “NTCP inhibitor or non-inhibitor” value is listed as “did not inhibit NTCP” and the potency estimated from few doses was greater than 100 µM. Besides, the potency estimated from few doses on human ASBT is 246 ± 119 µM.
With `NC(N)=Nc1nc(CSCCC(N)=NS(N)(=O)=O)cs1` [Famotidine], the potency estimated from few doses on human NTCP [1] is 387 ± 130 µM; at human ASBT, 2280 ± 978 µM.
On to `O=C1[C@H](CC[C@H](O)c2ccc(F)cc2)[C@@H](c2ccc(O)cc2)N1c1ccc(F)cc1` [Ezetimibe], for which, on human NTCP [1], the “NTCP inhibitor or non-inhibitor” value is given as “NTCP inhibitors” and the potency estimated from few doses is 53.8 ± 3.3 µM. Moreover, at human ASBT, the potency estimated from few doses was 4.61 ± 0.88 µM and the “taurocholate uptake into ASBT-MDCK cells, percent of control” value is given as “below 50%”.
In the case of `CCCCOc1cc(C(=O)NCCN(CC)CC)c2ccccc2n1` [Dibucaine], the potency estimated from few doses at human NTCP [1] is greater than 100 µM; at human ASBT, 85.8 ± 2.3 µM. For the same molecule, the “fold more potent ASBT inhibition than NTCP inhibition” value on human ASBT is no less than 10 fold.
Consider `CCCCC1=NC2(CCCC2)C(=O)N1Cc1ccc(-c2ccccc2-c2nnn[nH]2)cc1` [Irbesartan], for which the “NTCP inhibitor or non-inhibitor” value at human NTCP [1] was “inhibited NTCP”. Moreover, the potency estimated from few doses on human ASBT was 131 ± 34 µM.
Consider `CN(C)CCCN1c2ccccc2Sc2ccc(Cl)cc21` [Chlorpromazine], for which the potency estimated from few doses at human NTCP [1] is 767 ± 268 µM. Moreover, at human ASBT, the “fold more potent ASBT inhibition than NTCP inhibition” value was no less than 10 fold; the potency estimated from few doses is 50.7 ± 5.9 µM; the “taurocholate uptake into ASBT-MDCK cells, percent of control” value is given as “below 50%”.
For the molecule `COC(=O)C1=C(C)NC(C)=C(C(=O)OCCN(C)Cc2ccccc2)C1c1cccc([N+](=O)[O-])c1` (stereo not drawn) [Nicardipine], the figures for the potency estimated from few doses at human NTCP [1] and at human ASBT were 309 ± 144 µM and 142 ± 3 µM, respectively.
The matching figures for `C=C[C@H]1C[N@@]2CC[C@H]1C[C@H]2[C@H](O)c1ccnc2ccc(OC)cc12` [Quinine]: 1490 ± 581 µM and 239 ± 117 µM.
The like results for `C[C@]12C=CC(=O)C=C1CC[C@@H]1[C@@H]2[C@@H](O)C[C@@]2(C)[C@H]1CC[C@]2(O)C(=O)CO` [Prednisolone] were, in that order, 335 ± 177 µM and 89.2 ± 32 µM.
On to `COc1ccc2cc([C@H](C)C(=O)O)ccc2c1` [Naproxen], for which, at human NTCP [1], the “NTCP inhibitor or non-inhibitor” value is “inhibited NTCP” and the potency estimated from few doses is 217 ± 69 µM. Further, the potency estimated from few doses at human ASBT was 136 ± 13 µM.
Turning to `CCN(CC)CCNC(=O)c1ccc(N)cc1` [Procainamide HCl], the potency estimated from few doses on human NTCP [1] was 384 ± 185 µM; on human ASBT it was greater than 100 µM.
The matching figures for `CN1CCN(CC/C=C2/c3ccccc3Sc3ccc(S(=O)(=O)N(C)C)cc32)CC1` [Thiothixene]: greater than 100 µM and greater than 100 µM.
